{"source": "patent US20220168427A1", "about": "(Ranok Therapeutics (Hangzhou) Co. Ltd., priority 2019, published 2022)", "key": {"HSP90α": {"target": "HSP90α (Homo sapiens, UniProt P07900)", "test": "HSP90α Binding Fluorescent Polarization (FP) Assay", "conditions": "competition with FITC-geldanamycin; read-out: HSP90 Binding Potency", "outline": "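Duplicate wells held BSA buffer, FITC-geldanamycin tracer, compound (3-fold dilution plate spanning 40 μM–2.0 nM) and recombinant protein diluted to 28 μg/ml before addition. Polarization read at 30, 60 and 120 min, 25 °C. Background-corrected mP values gave IC50 through a four-parameter inhibitor-response fit.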"}, "BRD4 (BD1+BD2)": {"target": "T1, BRD4 (BD1+BD2) (Homo sapiens, UniProt O60885)", "T1 construct": "1.8 μg/ml recombinant BRD4 (BD1+BD2 domains) protein", "conditions": "read-out: BRD4 Binding Potency"}, "MV4-11 cells": {"tested_on": "MV4-11 cells", "test": "MV4-11 Cell Cytotoxicity Assay", "format": "cell-based, human", "conditions": "human, MV4-11 cells, CCK-8", "from_the_text": "% Inhibition=100−(D−B)/(S−B)*100%.\nS: The absorbance of the maximum (cells with DMSO)\nB: The absorbance of the minimum (medium with DMSO)"}}}
{"smiles": "Cc1sc2c(c1C)C(c1ccc(Cl)cc1)=N[C@@H](CC(=O)NCC1CN(C(=O)C3CCN(Cc4ccc(-n5c(O)nnc5-c5cc(C(C)C)c(O)cc5O)cc4)CC3)C1)c1nnc(C)n1-2", "note": "[Compound 59, 2-((6S)-4-(4-chlorophenyl)-2,3,9-trimethyl-6H-thieno[3,2-f][1,2,4]triazolo[4,3-a][1,4]diazepin-6-yl)-N-((1-(1-(4-(3-(2,4-dihydroxy-5-isopropylphenyl)-5-hydroxy-4H-1,2,4-triazol-4-yl)benzyl)piperidine-4-carbonyl)azetidin-3-yl)methyl)acetamide, trifluoroacetic acid]", "values": [{"measurement": "IC50", "setting": "HSP90α", "value": "100 to 1000", "unit": "nM"}, {"measurement": "IC50", "setting": "BRD4 (BD1+BD2)", "value": "100 to 1000", "unit": "nM"}, {"measurement": "IC50 at 72 h", "setting": "MV4-11 cells", "value": "< 100", "unit": "nM"}]}
{"smiles": "Cc1sc2c(c1C)C(c1ccc(Cl)cc1)=NC(CC(=O)N[C@H](C)c1ccc(CN3CCN(Cc4ccc(-n5c(O)nnc5-c5cc(C(C)C)c(O)cc5O)cc4)CC3)cc1)c1nnc(C)n1-2", "note": "(stereo in doubt) [Compound 70, 2-((6S)-4-(4-chlorophenyl)-2,3,9-trimethyl-6H-thieno[3,2-f][1,2,4]triazolo[4,3-a][1,4]diazepin-6-yl)-N—((R)-1-(4-((4-(4-(3-(2,4-dihydroxy-5-isopropylphenyl)-5-hydroxy-4H-1,2,4-triazol-4-yl)benzyl)piperazin-1-yl)methyl)phenyl)ethyl)acetamide, trifluoroacetic acid]", "values": [{"measurement": "IC50", "setting": "HSP90α", "value": "100 to 1000", "unit": "nM"}, {"measurement": "IC50", "setting": "BRD4 (BD1+BD2)", "value": "100 to 1000", "unit": "nM"}, {"measurement": "IC50 at 72 h", "setting": "MV4-11 cells", "value": "< 100", "unit": "nM"}]}
{"smiles": "CCc1cc(-c2nnc(O)n2-c2ccc(CN3CCC(C(=O)N4CCC(CNCC[C@@H]5N=C(c6ccc(Cl)cc6)c6c(sc(C)c6C)-n6c(C)nnc65)CC4)CC3)cc2)c(O)cc1O", "note": "[Compound 68, (4-(((2-((6S)-4-(4-chlorophenyl)-2,3,9-trimethyl-6H-thieno[3,2-f][1,2,4]triazolo[4,3-a][1,4]diazepin-6-yl)ethyl)amino)methyl)piperidin-1-yl)(1-(4-(3-(5-ethyl-2,4-dihydroxyphenyl)-5-hydroxy-4H-1,2,4-triazol-4-yl)benzyl)piperidin-4-yl)methanone, trifluoroacetic acid]", "values": [{"measurement": "IC50", "setting": "HSP90α", "value": "100 to 1000", "unit": "nM"}, {"measurement": "IC50", "setting": "BRD4 (BD1+BD2)", "value": "100 to 1000", "unit": "nM"}, {"measurement": "IC50 at 72 h", "setting": "MV4-11 cells", "value": "100 to 1000", "unit": "nM"}]}
{"smiles": "Cc1sc2c(c1C)C(c1ccc(Cl)cc1)=N[C@@H](CC(=O)NCCOCCN1CCC(Cc3ccc(-n4c(O)nnc4-c4cc(C(C)C)c(O)cc4O)cc3)CC1)c1nnc(C)n1-2", "note": "[Compound 37, 2-((6S)-4-(4-chlorophenyl)-2,3,9-trimethyl-6H-thieno[3,2-f][1,2,4]triazolo[4,3-a][1,4]diazepin-6-yl)-N-(2-(2-(4-(4-(3-(2,4-dihydroxy-5-isopropylphenyl)-5-hydroxy-4H-1,2,4-triazol-4-yl)benzyl)piperidin-1-yl)ethoxy)ethyl)acetamide, trifluoroacetic acid]", "values": [{"measurement": "IC50", "setting": "HSP90α", "value": "< 100", "unit": "nM"}, {"measurement": "IC50", "setting": "BRD4 (BD1+BD2)", "value": "< 100", "unit": "nM"}, {"measurement": "IC50 at 72 h", "setting": "MV4-11 cells", "value": "100 to 1000", "unit": "nM"}]}
{"smiles": "CCc1cc(-c2nnc(O)n2-c2ccc(CC3CCN(CC4CCN(C(=O)C[C@@H]5N=C(c6ccc(Cl)cc6)c6c(sc(C)c6C)-n6c(C)nnc65)CC4)CC3)cc2)c(O)cc1O", "note": "[Compound 88, (S)-2-(4-(4-chlorophenyl)-2,3,9-trimethyl-6H-thieno[3,2-f][1,2,4]triazolo[4,3-a][1,4]diazepin-6-yl)-1-(4-((4-(4-(3-(5-ethyl-2,4-dihydroxyphenyl)-5-hydroxy-4H-1,2,4-triazol-4-yl)benzyl)piperidin-1-yl)methyl)piperidin-1-yl)ethan-1-one, formic acid]", "values": [{"measurement": "IC50", "setting": "HSP90α", "value": "100 to 1000", "unit": "nM"}, {"measurement": "IC50", "setting": "BRD4 (BD1+BD2)", "value": "100 to 1000", "unit": "nM"}, {"measurement": "IC50 at 72 h", "setting": "MV4-11 cells", "value": "< 100", "unit": "nM"}]}
{"smiles": "Cc1sc2c(c1C)C(c1ccc(Cl)cc1)=N[C@@H](CC(=O)N(C)[C@H](C)c1ccc(CN3CCC(Cc4ccc(-n5c(O)nnc5-c5cc(C(C)C)c(O)cc5O)cc4)CC3)cc1)c1nnc(C)n1-2", "note": "[Compound 93, 2-((S)-4-(4-chlorophenyl)-2,3,9-trimethyl-6H-thieno[3,2-f][1,2,4]triazolo[4,3-a][1,4]diazepin-6-yl)-N—((R)-1-(4-((4-(4-(3-(2,4-dihydroxy-5-isopropylphenyl)-5-hydroxy-4H-1,2,4-triazol-4-yl)benzyl)piperidin-1-yl)methyl)phenyl)ethyl)-N-methylacetamide, trifluoroacetic acid]", "values": [{"measurement": "IC50", "setting": "HSP90α", "value": "100 to 1000", "unit": "nM"}, {"measurement": "IC50", "setting": "BRD4 (BD1+BD2)", "value": "100 to 1000", "unit": "nM"}, {"measurement": "IC50 at 72 h", "setting": "MV4-11 cells", "value": "< 100", "unit": "nM"}]}
{"smiles": "Cc1sc2c(c1C)C(c1ccc(Cl)cc1)=N[C@@H](CCNCCOc1ccc(-n3c(O)nnc3-c3cc(C(C)C)c(O)cc3O)cc1)c1nnc(C)n1-2", "note": "[Compound 62, (S)-4-(4-(4-(2-((2-(4-(4-chlorophenyl)-2,3,9-trimethyl-6H-thieno[3,2-f][1,2,4]triazolo[4,3-a][1,4]diazepin-6-yl)ethyl)amino)ethoxy)phenyl)-5-hydroxy-4H-1,2,4-triazol-3-yl)-6-isopropylbenzene-1,3-diol, trifluoroacetic acid]", "values": [{"measurement": "IC50", "setting": "HSP90α", "value": "100 to 1000", "unit": "nM"}, {"measurement": "IC50", "setting": "BRD4 (BD1+BD2)", "value": "> 1000", "unit": "nM"}, {"measurement": "IC50 at 72 h", "setting": "MV4-11 cells", "value": "100 to 1000", "unit": "nM"}]}
{"smiles": "Cc1sc2c(c1C)C(c1ccc(Cl)cc1)=N[C@@H](CC(=O)NCCOCCN[C@@H](C)C(=O)NC(C(=O)N1CCC[C@H]1C(=O)Nc1snnc1-c1ccccc1)C1CCCCC1)c1nnc(C)n1-2", "note": "(stereo in doubt) [Compound 127, (S)-1-((2S,5S)-14-((S)-4-(4-chlorophenyl)-2,3,9-trimethyl-6H-thieno[3,2-f][1,2,4]triazolo[4,3-a][1,4]diazepin-6-yl)-2-cyclohexyl-5-methyl-4,13-dioxo-9-oxa-3,6,12-triazatetradecanoyl)-N-(4-phenyl-1,2,3-thiadiazol-5-yl)pyrrolidine-2-carboxamide]", "values": [{"measurement": "IC50", "setting": "HSP90α", "value": "> 1000", "unit": "nM"}, {"measurement": "IC50", "setting": "BRD4 (BD1+BD2)", "value": "100 to 1000", "unit": "nM"}, {"measurement": "IC50 at 72 h", "setting": "MV4-11 cells", "value": "100 to 1000", "unit": "nM"}]}
{"smiles": "CCc1cc(-c2nnc(C(=O)NCC(F)(F)F)n2-c2ccc(CN3CCN(CC4CCN(C(=O)C[C@@H]5N=C(c6ccc(Cl)cc6)c6c(sc(C)c6C)-n6c(C)nnc65)CC4)CC3)cc2)c(O)cc1O", "note": "[Compound 14, 4-(4-((4-((1-(2-((6S)-4-(4-chlorophenyl)-2,3,9-trimethyl-6H-thieno[3,2-f][1,2,4]triazolo[4,3-a][1,4]diazepin-6-yl)acetyl)piperidin-4-yl)methyl)piperazin-1-yl)methyl)phenyl)-5-(5-ethyl-2,4-dihydroxyphenyl)-N-(2,2,2-trifluoroethyl)-4H-1,2,4-triazole-3-carboxamide, trifluoroacetic acid]", "values": [{"measurement": "IC50", "setting": "HSP90α", "value": "100 to 1000", "unit": "nM"}, {"measurement": "IC50", "setting": "BRD4 (BD1+BD2)", "value": "> 1000", "unit": "nM"}, {"measurement": "IC50 at 72 h", "setting": "MV4-11 cells", "value": "< 100", "unit": "nM"}]}
{"smiles": "Cc1sc2c(c1C)C(c1ccc(Cl)cc1)=N[C@@H](CC(=O)Nc1ccc(NC(=O)C3CCN(Cc4ccc(-n5c(O)nnc5-c5cc(C(C)C)c(O)cc5O)cc4)CC3)cc1)c1nnc(C)n1-2", "note": "[Compound 72, N-(4-(2-((6S)-4-(4-chlorophenyl)-2,3,9-trimethyl-6H-thieno[3,2-f][1,2,4]triazolo[4,3-a][1,4]diazepin-6-yl)acetamido)phenyl)-1-(4-(3-(2,4-dihydroxy-5-isopropylphenyl)-5-hydroxy-4H-1,2,4-triazol-4-yl)benzyl)piperidine-4-carboxamide, trifluoroacetic acid]", "values": [{"measurement": "IC50", "setting": "HSP90α", "value": "> 1000", "unit": "nM"}, {"measurement": "IC50", "setting": "BRD4 (BD1+BD2)", "value": "> 1000", "unit": "nM"}, {"measurement": "IC50 at 72 h", "setting": "MV4-11 cells", "value": "< 100", "unit": "nM"}]}
{"smiles": "CCn1c(=O)/c(=C2\\Sc3ccccc3N2C)s/c1=C\\c1cccc[n+]1CCNC(=O)C[C@@H]1N=C(c2ccc(Cl)cc2)c2c(sc(C)c2C)-n2c(C)nnc21", "note": "[Compound 8, 1-(2-(2-((6S)-4-(4-chlorophenyl)-2,3,9-trimethyl-6H-thieno[3,2-f][1,2,4]triazolo[4,3-a][1,4]diazepin-6-yl)acetamido)ethyl)-2-((Z)-((E)-3-ethyl-5-(3-methylbenzo[d]thiazol-2(3H)-ylidene)-4-oxothiazolidin-2-ylidene)methyl)pyridin-1-ium]", "values": [{"measurement": "IC50", "setting": "HSP90α", "value": "> 1000", "unit": "nM"}, {"measurement": "IC50", "setting": "BRD4 (BD1+BD2)", "value": "100 to 1000", "unit": "nM"}, {"measurement": "IC50 at 72 h", "setting": "MV4-11 cells", "value": "> 1000", "unit": "nM"}]}
